Patent US11778995B2, “Genetically modified non-human animals and methods of use thereof” (Regeneron Pharmaceuticals, Inc., priority 2012, dated 2023)

Tested on: INA-6 cells
Assay: μCT analysis of murine femurs after treatment of INA-6-engrafted mice with anti-myeloma drugs
Format: in vivo, mouse
Conditions: Rag2−/−Il2rgnullIl6h/hhSIRPa+ mice engrafted with 5×10^5 intrafemorally injected INA-6 cells, treated biweekly, femurs analyzed after four weeks, compared to untreated mice
Source text: FIG. 7 is a graph depicting the results of μCT analysis of murine femurs after treatment with anti-myeloma drugs. Rag2^−/−Il2rg^nullIl6^h/hhSIRPa+ were engrafted with 5×10^5 intrafemorally injected INA-6 cells and treated biweekly with Velcade® or Zometa®, respectively. After four weeks, mice were sacrificed and femurs were fixed in 70% ethanol for μCT analysis. Trabecular bone and tissue volumes were quantified to calculate the ratio between bone to tissue volume.
Transplantation of cells. For intrafemoral transplantation of INA6 cells, Rag2^−/−Il2rg^null Il6^h/hhSIRPa^+ mice were irradiated twice with 200 rad from an X-ray source.
Indicated amounts of cells were then transplanted into the femur of recipient mice. Briefly, mice were anaesthetized using Ketamine/Xylazine and a hole was drilled into the patellar surface of the femur using a 26 gauge needle. The cells were then slowly injected in a volume of 20 μl using a 27 gauge needle. […]
μCT. Femur morphometry was quantified using cone-beam microfocus x-ray computed tomography (μCT40; ScancoMedicalAG). […]
Therefore, it was next examined whether transplantation of the tumor cell line in its natural microenvironment is able to reproduce the pathology typically associated with human MM. […] Specifically, the loss of trabecular bone mass was observed by histology, which was quantified by μCT. […]

O=P(O)(O)C(O)(Cn1ccnc1)P(=O)(O)O [Zometa]
bone resorption as quantified by μCT (ratio between bone to tissue volume): able to reduce bone resorption
